Assay results taken from PubChem BioAssay (NCI).
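Exposure lasted 48 hours, with cells grown in 96-well plates and compounds tested at five concentrations. Here, GI50 denotes the concentration required for 50% inhibition of growth. Definition used: TGI = concentration required for complete inhibition of growth.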

Experiments:
Assay in all cases: inhibition of tumour cell growth, NCI panel, 48 h; in the data active = GI50 below about 0.43 µM; inactive = the rest
[1] = tested on: DU-145 prostate
[2] = tested on: SK-MEL-2 melanoma
[3] = tested on: K-562 leukemia
[4] = tested on: TK-10 renal
[5] = tested on: SF-539 CNS
[6] = tested on: NCI-H23 lung
[7] = tested on: RPMI-8226 leukemia
[8] = tested on: ACHN renal
[9] = tested on: SR leukemia
[10] = tested on: SK-MEL-5 melanoma
[11] = tested on: HCT-116 colon
[12] = tested on: CAKI-1 renal
[13] = tested on: HCC-2998 colon
[14] = tested on: MDA-MB-231 breast
[15] = tested on: COLO 205 colon
[16] = tested on: SK-MEL-28 melanoma
[17] = tested on: UO-31 renal
[18] = tested on: HCT-15 colon
[19] = tested on: HT29 colon
[20] = tested on: HOP-62 NSCLC
[21] = tested on: PC-3 prostate
[22] = tested on: OVCAR-3 ovarian
[23] = tested on: NCI-H226 lung
[24] = tested on: SN12C renal
[25] = tested on: BT-549 breast
[26] = tested on: OVCAR-5 ovarian
[27] = tested on: IGROV1 ovarian
[28] = tested on: MALME-3M melanoma
[29] = tested on: KM12 colon
[30] = tested on: MCF7 breast
[31] = tested on: 786-0 renal
[32] = tested on: A498 renal
[33] = tested on: SNB-19 CNS
[34] = tested on: OVCAR-8 ovarian
[35] = tested on: RXF 393 renal
[36] = tested on: HS 578T breast
[37] = tested on: HL-60(TB) leukemia
[38] = tested on: U251 CNS
[39] = tested on: SW-620 colon
[40] = tested on: NCI-H460 lung
[41] = tested on: SK-OV-3 ovarian
[42] = tested on: LOX IMVI melanoma
[43] = tested on: MOLT-4 leukemia
[44] = tested on: A549 NSCLC
[45] = tested on: M14 melanoma
[46] = tested on: NCI-H522 lung
[47] = tested on: T-47D breast
[48] = tested on: CCRF-CEM leukemia
[49] = tested on: UACC-62 melanoma
[50] = tested on: SF-268 CNS
[51] = tested on: MDA-MB-435
[52] = tested on: UACC-257 melanoma
[53] = tested on: OVCAR-4 ovarian
[54] = tested on: NCI/ADR-RES ovarian
[55] = tested on: HOP-92 NSCLC
[56] = tested on: SNB-75 CNS
[57] = tested on: SF-295 CNS
[58] = tested on: EKVX NSCLC

CN(C)c1ccc(O)c2c1CC1CC3C(N(C)C)C(=O)C(C(N)=O)=C(O)C3(O)C(=O)C1=C2O (configuration not stated)
59.2 µM: TGI [44]
39 µM: TGI [22]
29.6 µM: TGI [40]
35.9 µM: TGI [32]
85.4 µM: TGI [41]
39.7 µM: TGI [31]
35.5 µM: TGI [4] | TGI [5]
91.4 µM: TGI [12]
31.6 µM: TGI [38]
81.7 µM: TGI [34]
89.9 µM: TGI [24]
59.1 µM: TGI [1] | TGI [16]
28 µM: TGI [10]
59.4 µM: TGI [36]
74.1 µM: TGI [43]
45 µM: TGI [25]
22.9 µM: TGI [2]
52.1 µM: TGI [52]
73 µM: TGI [17]
92.3 µM: TGI [50]
26.8 µM: TGI [7]
48.9 µM: TGI [37]
24.2 µM: TGI [27]
62.9 µM: TGI [20]
37.3 µM: TGI [42]
39.1 µM: TGI [13]
47 µM: TGI [14]
32.2 µM: TGI [29]
21.6 µM: TGI [35]
73.6 µM: TGI [54]
27 µM: TGI [15]
inactive: GI50 [1] 13.1 µM | GI50 [2] 5.66 µM | GI50 [3] 16.8 µM | GI50 [4] 5.66 µM | GI50 [5] 14.6 µM | GI50 [6] 15.2 µM | GI50 [7] 5.86 µM | GI50 [8] 8.4 µM | GI50 [9] 15.7 µM | GI50 [10] 12 µM | GI50 [11] 11.6 µM | GI50 [12] 5.74 µM | GI50 [13] 11.9 µM | GI50 [14] 19.1 µM | GI50 [15] 13.7 µM | GI50 [16] 22.1 µM | GI50 [17] 7.47 µM | GI50 [18] 5.59 µM | GI50 [19] 15.4 µM | GI50 [20] 19.1 µM | GI50 [21] 12.6 µM | GI50 [22] 12.8 µM | GI50 [23] 20.6 µM | GI50 [24] 18.1 µM | GI50 [25] 13.6 µM | GI50 [26] 15.6 µM | GI50 [27] 5.78 µM | GI50 [28] 16.3 µM | GI50 [29] 13.1 µM | GI50 [30] 20.2 µM | GI50 [31] 11.5 µM | GI50 [32] 6.96 µM | GI50 [33] 18.8 µM | GI50 [34] 9.84 µM | GI50 [35] 4.84 µM | GI50 [36] 14.4 µM | GI50 [37] 12.7 µM | GI50 [38] 6.84 µM | GI50 [39] 15.3 µM | GI50 [40] 10.6 µM | GI50 [41] 14.6 µM | GI50 [42] 6.21 µM | GI50 [43] 22.6 µM | GI50 [44] 9.43 µM | GI50 [45] 11.2 µM | GI50 [46] 13.6 µM | GI50 [47] 27.7 µM | GI50 [48] 19.5 µM | GI50 [49] 9.18 µM | GI50 [50] 18.9 µM | GI50 [51] 17.9 µM | GI50 [52] 17 µM | GI50 [53] 24.2 µM | GI50 [54] 17.3 µM
42.9 µM: TGI [19]
22 µM: TGI [49]
46 µM: TGI [46]
41.7 µM: TGI [28]
> 100 µM: TGI [3] | TGI [8] | TGI [9] | TGI [11] | TGI [18] | TGI [23] | TGI [26] | TGI [30] | TGI [33] | TGI [39] | TGI [45] | TGI [47] | TGI [48] | TGI [51] | TGI [53]
56 µM: TGI [6]
48.7 µM: TGI [21]

O=C(NC1CCCCC1)NS(=O)(=O)c1ccc(-n2nc3c(c2-c2cccs2)Cc2ccccc2-3)cc1
35 µM: TGI [3]
33.6 µM: TGI [8]
29.6 µM: TGI [55]
inactive: GI50 [1] 31.9 µM | GI50 [55] 14.3 µM | GI50 [2] 23.6 µM | GI50 [3] 10 µM | GI50 [4] 17.5 µM | GI50 [5] 27.6 µM | GI50 [6] 12.8 µM | GI50 [7] 10.7 µM | GI50 [8] 17.3 µM | GI50 [9] 1.57 µM | GI50 [10] 18.7 µM | GI50 [11] 31.7 µM | GI50 [12] 16 µM | GI50 [13] 6.63 µM | GI50 [14] 27.9 µM | GI50 [56] 52.5 µM | GI50 [15] 23.3 µM | GI50 [16] 34.2 µM | GI50 [17] 15.4 µM | GI50 [18] 17.8 µM | GI50 [19] 34.3 µM | GI50 [20] > 100 µM | GI50 [21] 14.5 µM | GI50 [22] 24.5 µM | GI50 [23] 21.3 µM | GI50 [24] 21.5 µM | GI50 [57] 34.9 µM | GI50 [25] 33.7 µM | GI50 [26] 26.6 µM | GI50 [27] 4.12 µM | GI50 [29] 34.9 µM | GI50 [30] > 100 µM | GI50 [31] 32.3 µM | GI50 [32] 57.2 µM | GI50 [33] 56.8 µM | GI50 [34] 25.3 µM | GI50 [35] 29.2 µM | GI50 [36] 37.5 µM | GI50 [37] 25 µM | GI50 [38] 25.6 µM | GI50 [58] 28.6 µM | GI50 [39] 20.7 µM | GI50 [40] 93 µM | GI50 [41] 44.5 µM | GI50 [42] 5.66 µM | GI50 [43] 4.99 µM | GI50 [44] 28 µM | GI50 [45] 64.1 µM | GI50 [46] 12.3 µM | GI50 [47] 39.7 µM | GI50 [48] 1.15 µM | GI50 [49] 19.3 µM | GI50 [50] > 100 µM | GI50 [51] 32.5 µM | GI50 [52] 24.8 µM | GI50 [53] 27 µM | GI50 [54] 20.4 µM
31.7 µM: TGI [21]
90.5 µM: TGI [34]
33.8 µM: TGI [6]
41 µM: TGI [18]
72.7 µM: TGI [52]
3.79 µM: TGI [48]
48.8 µM: TGI [37]
33.5 µM: TGI [42]
40.3 µM: TGI [46]
61.8 µM: TGI [5]
> 100 µM: TGI [1] | TGI [11] | TGI [14] | TGI [56] | TGI [16] | TGI [19] | TGI [20] | TGI [22] | TGI [57] | TGI [29] | TGI [30] | TGI [31] | TGI [32] | TGI [33] | TGI [36] | TGI [38] | TGI [39] | TGI [40] | TGI [41] | TGI [44] | TGI [45] | TGI [47] | TGI [50] | TGI [51] | TGI [53]
24.1 µM: TGI [13]
37.8 µM: TGI [43]
47.7 µM: TGI [24]
64.7 µM: TGI [2]
44.4 µM: TGI [12]
53 µM: TGI [49]
64.9 µM: TGI [23]
51.1 µM: TGI [15]
94.1 µM: TGI [25]
68.6 µM: TGI [26]
65.4 µM: TGI [58] | TGI [54]
4.01 µM: TGI [9]
34.9 µM: TGI [4]
84.1 µM: TGI [35]
39.9 µM: TGI [17]
23 µM: TGI [27]
30.6 µM: TGI [7]
43 µM: TGI [10]
